{"source": "patent US20240299334A1", "about": "“PHARMACEUTICAL COMPOSITION OF NAPHTHALENE DERIVATIVES AS MULTI-TARGETED THERAPEUTIC AGENTS FOR THE TREATMENT OF ALZHEIMER'S DISEASE” (CENTRO DE NEUROCIENCIAS DE CUBA, CNEURO, priority 2020, published 2024)", "key": {"[1]": {"tested_on": "memory loss induced by an acute administration of scopolamine (ESC)", "experiment": "Y-maze, short-term spatial memory, acute scopolamine (ESC) model", "assay_type": "in vivo, mice", "procedure": "(§1) Young male OF-1 mice (20-25 g), supplied by the National Center for the Laboratory Animals Production (CENPALAB, Cuba), were used. Before the experiment, the animals were adapted for seven days to laboratory conditions (controlled temperature 25±2° C., relative humidity 60±10% and light/dark cycles of 12 h). During this period, and during the experiment, the animals received ad libitum water and a standard diet for rodents supplied by CENPALAB. All procedures were carried out in accordance with the European Commission guidelines for the use and care of laboratory animals and approved by the Committee for the Care of Research Animals. The minimum number of animals and duration of observations required to obtain consistent data was used.\nAt the end of the adaptation period, the animals were randomly distributed according to their body weights in 5 experimental groups of 12 animals per group. Scopolamine hydrobromohydrate (ESC, Sigma Aldrich) was used to induce cognitive deficit, which was dissolved in physiological saline and administered intraperitoneally (ip) at a dose of 1.5 mg/kg, 30 minutes before the test (Miranda H F et al. in. J. Biomed. Sci., 2014 21 (1): 62-62). The doses of compound 3 used were 0.1, 1, 10 and 20 mg/kg of body weight. The compound was formulated using carboxymethyl cellulose (CMC). The administration scheme was designed as follows:\nGroup 1 (negative control) with normal cognitive function. Two administrations with an interval of 30 minutes with vehicle (5% CMC) by oral route and saline solution by i.p. route, respectively.\nGroup 2 (positive control) with cognitive dysfunction. Two administrations with an interval of 30 minutes, the first with vehicle (5% CMC), the second with ESC 1 mg/kg.\nGroup 3, 4, 5 and 6 treated with 3 (0.1, 1, 10 and 20 mg/kg). Two administrations with an interval of 30 minutes, the first with 3 at the dose corresponding to each group, the second with ESC 1 mg/kg. The behavioral evaluation was carried out 30 minutes after this second administration.\nThe study of short-term spatial memory was carried out through the study of novel spatial preference, using the Y-maze behavioral paradigm (40 cm long×9 cm wide×16 cm high) with extra-labyrinthine tracks around of the maze. The test consisted of two trials separated by an interval of 2 hours. In the first training test (acquisition), the mice were placed in the center of the maze and facing the end of one of the arms whose selection was random. After being positioned, they were allowed to explore the maze for 10 minutes with one of the arms closed (novel arm). At the end of this test, the mice were returned to their original cage until the second test (recovery), during which they could freely explore the three arms of the maze for 5 minutes. The total residence time (exploration) in each arm was measured and analyzed from video recordings. The entrance to the arm was defined as the entrance of the four legs of the animal in said arm. The residence time (sec) in each arm during the recovery test of the learned task was used for the statistical analysis. The maze was cleaned with 70% ethanol between runs. All mice were transported to the behavioral testing room in their home cages at least 1 day prior to testing. The experiments were carried out between 8:00 am and 12:30 pm.\nAll data are expressed as the mean±standard error of the mean (SEM). The Morris water maze data was analyzed in two ways. Escape latencies in the visible platform training phase were analyzed using a two-factor ANOVA (treatment×trial). For the study of long-term memory, the last escape latency value of the training phase with the visible platform (D1 V4) and the first value of the test with the hidden platform performed 24 h later (D2T1) were used. Mice with intact long-term memory capacity should quickly reach the hidden platform in the first test. A scoring system was generated with the difference D2T1−D1 V4 and with the ratio D2T1/D1V4. […]"}, "[2]": {"tested_on": "memory loss induced by an acute administration of scopolamine (ESC)", "experiment": "Morris water maze, two-day protocol, acute ESC model", "assay_type": "in vivo, mice", "conditions": "long-term spatial memory", "procedure": "as §1\nAt the end of the adaptation period, the animals were randomly distributed according to their body weights in 5 experimental groups of 12 animals per group. […]\nThe experience was carried out for two days; a first day of training and a second day of testing. […] 24 hours after the last visible platform test (D2), the animals were evaluated in a series of three tests with the hidden platform (T1-T3). […]\nAll data are expressed as the mean±standard error of the mean (SEM). The Morris water maze data was analyzed in two ways. Escape latencies in the visible platform training phase were analyzed using a two-factor ANOVA (treatment×trial). […]"}}, "data": [{"smiles": "CSC(=S)NCCNC(=O)CCC(=O)Nc1cccc2ccccc12", "note": "[compound 3, methyl(2-{[4-(1-naphthylamino)-4-oxobutanoyl]amino}ethyl)dithiocarbamate]", "values": [{"measurement": "dose with the greatest effect", "setting": "[1]; Y-maze, acute ESC model", "value": 1, "unit": "mg/kg"}, {"measurement": "residence (exploration) time in the novel arm", "setting": "[1]; compound 3 at doses higher than 1 mg/kg (10, 20 mg/kg)", "value": "a decrease in this parameter was observed"}, {"measurement": "amnesia induced by ESC, preference for novel arm in Y-maze", "setting": "[1]; compound 3 single doses 0.1 mg/kg to 10 mg/kg, 30 min before ESC, p<0.001", "value": "significantly reversed"}, {"measurement": "residence (exploration) time in the novel arm", "setting": "[1]; compound 3 up to the 1 mg/kg dose, p<0.01 vs ESC", "value": "gradual increase in the exploration time, significantly different from the ESC group"}, {"measurement": "difference and ratio of escape latency, last visible-platform test vs first hidden-platform test", "setting": "[2]", "value": "differs significantly from the group with ESC"}]}]}
